Laboratory results from US9074300B2 (priority 2001, dated 2015).

Key:
[1] = molecular target: cutinase (Fusarium vanettenii, UniProt P00590); assay type: biochemical, Fusarium solani pisi; details: read-out: Michaelis constant (KM)
Experimental: The release of PNP was followed using absorbance spectroscopy.
Spectrophotometric measurement was performed at room temperature using BECKMAN DU-640 spectrophotometer (BECKMAN COULTER, INC., Fullerton, Calif.).

[2] = molecular target: T1, GST (Rattus norvegicus, UniProt P08010); details: corresponds to affinity of 100 μM
Excerpt: For example, glutathione-S-transferase (GST) is an enzyme which is commonly used as an affinity handle for the purification of recombinant proteins. The target protein is expressed and purified as a GST fusion and may then be treated with a protease to remove the GST domain (Smith and Johnson, 1988).

[3] = molecular target: T1, GST; details: read-out: affinity of binding to GST; cited from earlier work
[4] = molecular target: T2, GST (Schistosoma japonicum, UniProt P08515); details: bound complex with GST
[5] = molecular target: T2, GST; assay: SPR immobilization of GST to self-assembled monolayer; assay type: binding; details: monolayer from 1:99 mixture of alkanethiol 13 and penta(ethylene glycol) alkanethiol; GST 100 μM, PBS pH 7.4

T2 sequence (P08515 2-218 limits assumed): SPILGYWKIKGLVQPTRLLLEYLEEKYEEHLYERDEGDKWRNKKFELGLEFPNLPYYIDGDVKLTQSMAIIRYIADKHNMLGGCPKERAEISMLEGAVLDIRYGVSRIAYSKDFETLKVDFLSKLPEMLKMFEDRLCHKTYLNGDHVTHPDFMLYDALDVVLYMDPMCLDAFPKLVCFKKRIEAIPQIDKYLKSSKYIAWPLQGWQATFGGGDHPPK
T1 sequence (P08010 2-218 limits assumed): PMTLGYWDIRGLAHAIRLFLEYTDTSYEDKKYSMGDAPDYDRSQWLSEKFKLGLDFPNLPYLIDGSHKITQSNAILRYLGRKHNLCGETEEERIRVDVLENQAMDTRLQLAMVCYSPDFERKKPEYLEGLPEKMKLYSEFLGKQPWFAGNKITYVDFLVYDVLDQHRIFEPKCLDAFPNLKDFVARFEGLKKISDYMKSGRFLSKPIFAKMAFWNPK
Chain of cutinase (P00590 17-230): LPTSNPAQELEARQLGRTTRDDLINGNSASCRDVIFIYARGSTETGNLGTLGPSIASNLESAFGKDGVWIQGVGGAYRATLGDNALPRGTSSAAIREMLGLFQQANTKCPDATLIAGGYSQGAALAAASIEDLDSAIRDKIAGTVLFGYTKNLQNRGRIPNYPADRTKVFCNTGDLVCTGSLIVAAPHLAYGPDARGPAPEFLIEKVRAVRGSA

CCCC(=O)Oc1ccc([N+](=O)[O-])cc1 [4-nitrophenyl butyrate]
Km [1]: 1000 µM

N[C@@H](CCC(=O)N[C@@H](CS)C(=O)NCC(=O)O)C(=O)O [glutathione]
lifetime of the bound complex [2]: about one
Kd [3]: ~100 µM

Glutathione-dichtoroquinone conjugate [formula (6)]
first-order rate constant of irreversible cross-linking reaction [4]: 0.11 ± 0.03 min⁻¹

Hydroquinone-glutathione-EG5-alkanethiol [compound 13]
binding of GST to monolayer [5]: this binding was irreversible
